Laboratory results taken from patent publication US9480259B2, “Pyrazolopyrans having herbicidal and pharmaceutical properties” (BASF SE, priority 2012, dated 2016).

These molecules were tested on SETFA, AMARE, POLCO, CHEAL, GALAP (assay: Greenhouse herbicidal test, post-emergence, weed panel). Details: application rate 1 kg/ha, scale 0 to 100.
Type: in vivo
Text: (§1) The seeds of the test plants were sown separately for each species. For the post-emergence treatment, the test plants were first grown to a height of 2 to 5 cm, depending on the plant habit, and only then treated with the active ingredients which had been suspended or emulsified in water. For this purpose, the test plants were either sown directly and grown in the same containers, or they were first grown separately as seedlings and transplanted into the test containers a few days prior to treatment. Depending on the species, the plants were kept at 10-25° C. or 20-35° C. The test period extended over 8 to 9 days. During this time, the plants were tended, and their response to the individual treatments was evaluated. Evaluation was carried out using a scale from 0 to 100. 100 means no emergence of the plants, or complete destruction of at least the aerial moieties, and 0 means no damage, or normal course of growth. A good herbicidal activity is given at values of at least 70 and a very good herbicidal activity is given at values of at least 85. The plants used in the greenhouse experiments belonged to the following species: [table]

Compound | herbicidal activity against at least three of the weeds SETFA, AMARE, POLCO, CHEAL, GALAP
Cc1n[nH]c2c1C(c1cc(C#N)cc(OC(F)(F)F)c1)(C1CCC1)C(C#N)=C(N)O2 (racemic) [Compound 2.417] | good or very good
COCCOCC(=O)N(C)c1cc(C#N)cc(C2(C3CCC3)C(C#N)=C(N)Oc3[nH]nc(C)c32)c1 (centres unmarked) [Compound 2.616] | good or very good
Cc1n[nH]c2c1C(c1cc(C#N)cc(N(C)C(=O)CC#N)c1)(C1CCC1)C(C#N)=C(N)O2 (centres unmarked) [Compound 2.635] | good or very good
CC(=O)N(C)c1cc(C(F)(F)F)cc(C2(C3(F)CC3)C(C#N)=C(N)Oc3[nH]nc(C)c32)c1 (racemic) [Compound 2.439] | good or very good
CCCC(=O)N(C)c1cc(C#N)cc(C2(C3CCC3)C(C#N)=C(N)Oc3[nH]nc(C)c32)c1 (centres unmarked) [Compound 2.612] | good or very good
Cc1n[nH]c2c1C(c1cc(C#N)cc(N(C)S(C)(=O)=O)c1)(C1CCC1)C(C#N)=C(N)O2 (centres unmarked) [Compound 2.617] | good or very good
CC(=O)N(C)c1cc(C#N)cc(C2(C3CCC3)C(C#N)=C(N)Oc3[nH]nc(C)c32)c1 (racemic) [Compound 2.414] | good or very good
Cc1n[nH]c2c1C(c1cc(Cl)cc(C#N)c1)(C1(F)CC1)C(C#N)=C(N)O2 (racemic) [Compound 2.400] | good or very good
Cc1n[nH]c2c1C(c1cc(C#N)cc(C(F)(F)F)c1)(C1(F)CC1)C(C#N)=C(N)O2 (racemic) [Compound 2.404] | good or very good
Cc1n[nH]c2c1C(c1cc(Cl)cc(Cl)c1)(C(C)C)C(C#N)=C(N)O2 (racemic) [Compound 2.112] | good or very good

What follows are molecules tested against Arabidopsis thaliana SHMT (assay: SHMT activity assay (ED50 SHMT), coupled with N5,N10-CH2-THF dehydrogenase, NADH at 340 nm). Details: Arabidopsis thaliana SHMT enzyme assay; values given as upper bounds.
Type: biochemical
Method in brief: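 His-tagged SHMT purified on Ni-NTA. NADH formation followed at 340 nm for 30 min; ED50 from inhibition of initial velocity.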

Compound | EC50 [µM]
Cc1n[nH]c2c1C(c1cc(Cl)cc(Cl)c1)(C(C)(F)F)C(C#N)=C(N)O2 (centres unmarked) [Compound 2.653] | < 0.1

Same assay, conditions: Table 2, Arabidopsis thaliana SHMT enzyme assay; values given as upper bounds

Compound | EC50 [µM]
CCOc1n[nH]c2c1C(c1cc(Cl)cc(Cl)c1)(C1CCC1)C(C#N)=C(N)O2 (centres unmarked) [Compound 2.387] | < 0.1
Cc1n[nH]c2c1C(c1cc(Cl)cc(-c3cccnc3)c1)(C1CCC1)C(C#N)=C(N)O2 (centres unmarked) [Compound 2.324] | < 0.01
Cc1n[nH]c2c1C(c1cc(Cl)cc(C#N)c1)(C1(F)CC1)C(C#N)=C(N)O2 (racemic) [Compound 2.379] | < 0.01
Cc1n[nH]c2c1C(c1cc(Cl)cc(-c3ccsc3)c1)(C1CC1)C(C#N)=C(N)O2 (centres unmarked) [Compound 2.275] | < 0.01
Cc1n[nH]c2c1C(c1cc(Cl)cc(-c3cccc(C(F)(F)F)c3)c1)(C1CCC1)C(C#N)=C(N)O2 (centres unmarked) [Compound 2.249] | < 0.01
Cc1n[nH]c2c1C(c1cc(Br)cc(I)c1)(C1CCC1)C(C#N)=C(N)O2 (centres unmarked) [Compound 2.358] | < 0.01
CC(C)C1(c2cc(C#N)cc(C(F)(F)F)c2)C(C#N)=C(N)Oc2[nH]ncc21 (centres unmarked) [Compound 2.337] | < 0.01
N#CC1=C(N)Oc2[nH]ncc2C1(c1cc(Br)cc(C#N)c1)C1CC=CC1 (centres unmarked) [Compound 2.376] | < 0.01
Cc1n[nH]c2c1C(c1cc(I)cc(I)c1)(C1CCC1)C(C#N)=C(N)O2 (centres unmarked) [Compound 2.308] | < 0.01
Cc1n[nH]c2c1C(c1cc(Cl)cc(Oc3cccc(Cl)c3)c1)(C1CCC1)C(C#N)=C(N)O2 (centres unmarked) [Compound 2.237] | < 0.01
COc1ccc(Oc2cc(Cl)cc(C3(C4CCC4)C(C#N)=C(N)Oc4[nH]ncc43)c2)cc1 (centres unmarked) [Compound 2.343] | < 0.01
Cc1n[nH]c2c1C(c1cc(Br)cc(C#N)c1)(C1CC1)C(C#N)=C(N)O2 (centres unmarked) [Compound 2.365] | < 0.01
Cc1n[nH]c2c1C(c1cc(Br)cc(C#N)c1)(C1CC=CC1)C(C#N)=C(N)O2 (centres unmarked) [Compound 2.377] | < 0.01
Cc1n[nH]c2c1C(c1cc(C#N)cc(-c3ccc(C(F)(F)F)cc3)c1)(C1CCC1)C(C#N)=C(N)O2 (centres unmarked) [Compound 2.326] | < 0.01

Same assay, conditions: Table 2; values given as upper bounds

Compound | EC50 [µM]
COCCOCC(=O)N(C)c1cc(C#N)cc(C2(C3CCC3)C(C#N)=C(N)Oc3[nH]nc(C)c32)c1 (centres unmarked) [Compound 2.616] | < 0.01
Cc1n[nH]c2c1C(c1cc(C#N)cc(N(C)C(=O)CC#N)c1)(C1CCC1)C(C#N)=C(N)O2 (centres unmarked) [Compound 2.635] | < 0.01
CCCC(=O)N(C)c1cc(C#N)cc(C2(C3CCC3)C(C#N)=C(N)Oc3[nH]nc(C)c32)c1 (centres unmarked) [Compound 2.612] | < 0.01
Cc1n[nH]c2c1C(c1cc(C#N)cc(N(C)S(C)(=O)=O)c1)(C1CCC1)C(C#N)=C(N)O2 (centres unmarked) [Compound 2.617] | < 0.01
COCOc1cc(Cl)cc(C2(C3CCC3)C(C#N)=C(N)Oc3[nH]nc(C)c32)c1 (centres unmarked) [Compound 2.445] | < 0.01
CCC1(c2cc(Br)cc(C#N)c2)C(C#N)=C(N)Oc2[nH]nc(C(C)C)c21 (centres unmarked) [Compound 2.583] | < 0.01
CCC1(c2cc(F)cc(Cl)c2)C(C#N)=C(N)Oc2[nH]nc(C)c21 (centres unmarked) [Compound 2.20.] | < 1
Cc1n[nH]c2c1C(c1ccc(Cl)c(Cl)c1)(C1CCCCC1)C(C#N)=C(N)O2 (centres unmarked) [Compound 2.212.] | < 10
Cc1n[nH]c2c1C(c1cccc(C(F)(F)F)c1)(C1CCC1)C(C#N)=C(N)O2 (centres unmarked) [Compound 2.169.] | < 0.01
COC(=O)c1cc(C(=O)O)cc(-c2cc(C#N)cc(C3(C4CCC4)C(C#N)=C(N)Oc4[nH]nc(C)c43)c2)c1 (centres unmarked) [Compound 2.571] | < 0.1
Cc1cc(C2(C3CC3)C(C#N)=C(N)Oc3[nH]nc(C)c32)ccc1O (centres unmarked) [Compound 2.111.] | < 10
CCC1(c2cccc(C(F)(F)F)c2)C(C#N)=C(N)Oc2[nH]nc(C3CC3)c21 (centres unmarked) [Compound 2.119.] | < 1
CCC1(c2cc(Cl)cc(Cl)c2)C(C#N)=C(N)Oc2[nH]nc(C(C)C)c21 (centres unmarked) [Compound 2.132.] | < 1
CCCC1(c2cc(C#N)cc(C(F)(F)F)c2)C(C#N)=C(N)Oc2[nH]nc(COC)c21 (centres unmarked) [Compound 2.589] | < 0.1
Cc1n[nH]c2c1C(c1cc(Cl)cc(-c3ccccc3)c1)(C1CC1)C(C#N)=C(N)O2 (centres unmarked) [Compound 2.184.] | < 0.1
CCC1(c2cc(Br)cc(C#N)c2)C(C#N)=C(N)Oc2[nH]nc(C)c21 (centres unmarked) [Compound 2.532] | < 0.01
N#CC1=C(N)Oc2[nH]nc(C3CC3)c2C1(c1cccc(Cl)c1)C1CCC1 (centres unmarked) [Compound 2.174.] | < 0.1
CCC1(c2ccc(O)c(C)c2)C(C#N)=C(N)Oc2[nH]nc(C)c21 (centres unmarked) [Compound 2.25.] | < 1
CCC1(c2ccc(F)cc2)C(C#N)=C(N)Oc2[nH]nc(C)c21 (centres unmarked) [Compound 2.2.] | < 10
COc1cc(C(=O)O)cc(-c2cc(C#N)cc(C3(C4CCC4)C(C#N)=C(N)Oc4[nH]nc(C)c43)c2)c1 (centres unmarked) [Compound 2.563] | < 0.01
CCC1(c2cccc(Cl)c2)C(C#N)=C(N)Oc2[nH]nc(CCC(F)F)c21 (centres unmarked) [Compound 2.105.] | < 10
CCC1(c2cc(Oc3ccccc3)cc(C(F)(F)F)c2)C(C#N)=C(N)Oc2[nH]nc(C)c21 (centres unmarked) [Compound 2.86.] | < 1
CCCc1n[nH]c2c1C(CC)(c1cccc(C(F)(F)F)c1)C(C#N)=C(N)O2 (racemic) [Compound 2.99.] | < 10
CCC1(c2ccc(Oc3ccc(C(F)(F)F)cc3Cl)c(C)c2)C(C#N)=C(N)Oc2[nH]nc(C)c21 (centres unmarked) [Compound 2.23.] | < 10
CCc1n[nH]c2c1C(CC)(c1cc(Cl)cc(Cl)c1)C(C#N)=C(N)O2 (centres unmarked) [Compound 2.109.] | < 1
Cc1n[nH]c2c1C(c1ccc(O)c(Cl)c1)(C1CCC1)C(C#N)=C(N)O2 (centres unmarked) [Compound 2.485] | < 0.01
COC(=O)Cc1cccc(-c2cc(C#N)cc(C3(C4CCC4)C(C#N)=C(N)Oc4[nH]nc(C)c43)c2)c1 (centres unmarked) [Compound 2.524] | < 0.01

Same assay, conditions: inhibition of initial velocity of Arabidopsis thaliana SHMT

Compound | EC50 [µM]
Cc1n[nH]c2c1C(c1ccc3c(c1)C(F)(F)CCO3)(C1CCC1)C(C#N)=C(N)O2 (centres unmarked) [Compound 4.18] | < 0.01
Cc1n[nH]c2c1C(c1ccc(-c3ccsc3)s1)(C1CCC1)C(C#N)=C(N)O2 (racemic) [Compound 4.21] | < 0.01
Cc1n[nH]c2c1C(c1ccc(-c3ccc(C(F)(F)F)cc3)s1)(C1CCC1)C(C#N)=C(N)O2 (centres unmarked) [Compound 4.26] | < 0.01
CCC1(c2cc(C)co2)C(C#N)=C(N)Oc2[nH]nc(C)c21 (centres unmarked) [Compound 4.79] | < 10
Cc1n[nH]c2c1C(c1cc(-c3ccco3)cs1)(C1CCC1)C(C#N)=C(N)O2 (centres unmarked) [Compound 4.41] | < 0.01
Cc1n[nH]c2c1C(c1cc(-c3cccs3)cs1)(C1CCC1)C(C#N)=C(N)O2 (centres unmarked) [Compound 4.16] | < 0.01
Cc1n[nH]c2c1C(c1cc(C(F)(F)F)c3nc(C(=O)O)ccc3c1)(C1CCC1)C(C#N)=C(N)O2 (centres unmarked) [Compound 4.39] | < 0.01
Cc1n[nH]c2c1C(c1ccc(-c3ccccc3F)s1)(C1CCC1)C(C#N)=C(N)O2 (centres unmarked) [Compound 4.17] | < 0.01
Cc1n[nH]c2c1C(c1ccc3c(c1)OC(F)(F)O3)(C1(F)COC1)C(C#N)=C(N)O2 (racemic) [Compound 4.84] | < 10
Cc1n[nH]c2c1C(c1cc3cc(Cl)ccc3o1)(C1CCC1)C(C#N)=C(N)O2 (centres unmarked) [Compound 4.7] | < 0.01

What follows are molecules tested on CHEAL (Chenopodium album) (assay: Greenhouse herbicidal test, post-emergence, CHEAL). Details: Chenopodium album, application rate 1 kg/ha, scale 0 to 100, read-out: herbicidal activity against CHEAL.
Type: in vivo
Text: as §1

Compound | pest or weed control at 1000 g/ha [%]
COCCOCC(=O)N(C)c1cc(C#N)cc(C2(C3CCC3)C(C#N)=C(N)Oc3[nH]nc(C)c32)c1 (centres unmarked) [Compound 2.616] | ≥ 85
Cc1n[nH]c2c1C(c1cc(C#N)cc(N(C)C(=O)CC#N)c1)(C1CCC1)C(C#N)=C(N)O2 (centres unmarked) [Compound 2.635] | ≥ 85
Cc1n[nH]c2c1C(c1cc(C#N)cc(N(C)S(C)(=O)=O)c1)(C1CCC1)C(C#N)=C(N)O2 (centres unmarked) [Compound 2.617] | ≥ 85

Each molecule was assayed on AMARE (Amaranthus retroflexus) (assay: Greenhouse herbicidal test, post-emergence, AMARE). Details: Amaranthus retroflexus, application rate 1 kg/ha, scale 0 to 100, read-out: herbicidal activity against AMARE.
Type: in vivo
Text: as §1

Compound | pest or weed control at 1000 g/ha [%]
COCCOCC(=O)N(C)c1cc(C#N)cc(C2(C3CCC3)C(C#N)=C(N)Oc3[nH]nc(C)c32)c1 (centres unmarked) [Compound 2.616] | ≥ 85
Cc1n[nH]c2c1C(c1cc(C#N)cc(N(C)C(=O)CC#N)c1)(C1CCC1)C(C#N)=C(N)O2 (centres unmarked) [Compound 2.635] | ≥ 85
Cc1n[nH]c2c1C(c1cc(C#N)cc(N(C)S(C)(=O)=O)c1)(C1CCC1)C(C#N)=C(N)O2 (centres unmarked) [Compound 2.617] | ≥ 85
